Measurements published in US20110230430A1, “SAPONIN EXTRACT FROM SAPONARIA SPP. AND USES THEREOF” (NATIONAL RESEARCH COUNCIL OF CANADA, priority 2008, published 2011).

Key:
CRL-2522 cells = experiment: Vybrant Apoptosis Assay Kit #2 in CRL-2522 cells; type: cell-based, human
Source text: Another apoptotic assay is the Annexin-V detection of extracellular phosphatidlyserine (PS). Normally, phosphatidylserine is localized on the inner membrane of the plasmalemma. However, during the early stages of apoptosis, externalization of PS takes place. Annexin-V is a calcium binding protein which binds to PS and can be observed with annexin-V-FITC staining by flow cytometry (Martin, et al., 1995). Alexa Fluor® 488-labeled Annexin V, which has a high affinity for PS, is used to detect apoptotic cells by binding to PS on the outer surface of the cell. Propidium iodide staining is used concurrently to detect dead cells. When cells are analyzed by flow cytometry apoptotic cells show Annexin V staining, late apoptotic cells show PI and Annexin V staining, and dead cells show only PI staining. The Vybrant® Apoptosis Assay Kit #2 (Molecular Probes™) used herein in the Examples is an assay that measures Annexin-V positive cells.
CRL-2522 cells, acquired from ATCC, (American Type Culture Collection) are normal fibroblast cells that originated from human foreskin. CRL-2522 cells were maintained in RPMI 1640 medium (Gibco) supplemented with 10% fetal bovine serum (Cansera), 100 U/mL penicillin, 100 μg/mL streptomycin and 0.25 μg/mL amphotericin B. Cultures were maintained in medium at 37° C. with 5% CO2 and 100% relative humidity.
CRL-2522 cells were treated with PC1448 and assayed for apoptosis as described above for PC-3 cells.

PC-3 cells = experiment: Dual Sensor: MitoCasp Assay in PC-3 prostate cancer cells; type: cell-based, human
Source text: Techniques to assay enzymatic and signaling processes involved in apoptosis have been developed as standard protocols. One example of an early step in apoptosis, is the release of cytochrome C from mitochondria and the activation of caspase-3. Induction of the caspases (a series of cytosolic proteases) is one of the most consistently observed features of apoptosis. Caspases are a family of proteolytic enzymes that transmit the apoptotic signal using a proteolytic cascade. […] Caspases 3 and 7 are effector caspases, central to the caspase cascade pathways. In particular, caspase-3 plays a central role in the process. When caspases are activated, they cleave target proteins; one of the most important of these is poly-(ADP-ribose) polymerase (PARP), which is a protein located in the nucleus. Therefore, assays detecting release of cytochrome C, detecting caspase-3 activity and detecting PARP degradation are effective determinants of apoptosis. The loss of mitochondrial membrane potential is known to occur during apoptosis. To analyze mitochondrial membrane potential, a cationic dye may be used which accumulates in the mitochondria of healthy cells. Collapse of the mitochondrial membrane potential during apoptosis prevents the dye from accumulating in the mitochondria resulting in a decrease in fluorescent intensity that can be detected with flow cytometry. Dual Sensor: MitoCasp™ (Cell Technology) used herein in the Examples is an assay that measures caspase 3/7 activity and cells with decreased mitochondrial membrane potential. In this assay, caspase 3/7 activity is detected using a cell permeable carboxyfluorescein labeled caspase inhibitor, which binds covalently to active caspases 3 and 7. Cells that contain bound inhibitor are detected by an increase in fluorescence when samples are analyzed by flow cytometry.
PC-3 cells (ATCC #CRL-1435) were derived from a prostate adenocarcinoma (Kaighn et al., 1979). They were maintained in RPMI 1640 medium (Gibco) supplemented with 10% fetal bovine serum (Cansera), 100 U/mL penicillin, and 100 μg/mL streptomycin and 0.25 μg/mL amphotericin B. Cultures were maintained in medium at 37° C. with 5% CO2 and 100% relative humidity.
To harvest adherent cells, the existing medium was removed and cells were dissociated with 0.25% (w/v) trypsin-EDTA·4Na in Hank's Balanced Salt Solution (Gibco). To block the proteolytic action of the trypsin, the cells were resuspended in an excess of media containing fetal bovine serum. Cells were transferred to a 15 mL conical centrifuge tube and pelleted by centrifugation at 500×g for 5 min. Cell pellets were resuspended in media, and an aliquot of the cells were seeded into a new flask.
PC-3 cells were seeded in tissue culture flasks with regular growth medium and maintained under normal conditions. […] Following incubation under normal growth conditions for the specified time, cells were washed once with cold phosphate-buffered saline (PBS) (137 mM NaCl, 2.7 mM KCl, 4.3 mM Na2HPO4.7H2O, 1.4 mM KH2PO4) and harvested as previously described. Assays were carried out according to instructions given in kits. All Flow Cytometry was performed using a Coulter Epics XL (Beckman).
Following centrifugation at 500×g for 5 min, cell pellets were resuspended in PBS at 3.3×10^6 cells/mL. 300 μL cell suspension was mixed with 10 μL each of 30X Mitochondria Membrane Potential Dye and 30X Caspase 3/7 detection reagent. Following incubation for 60 min under normal growth conditions, cells were washed twice with 1× wash buffer and resuspended in 0.5 mL 1× wash buffer. Samples were analyzed by flow cytometry measuring the fluorescence emissions from 515 nm to 530 nm for caspase detection, and 574 nm to 600 nm for mitochondrial membrane potential detection.

[1] = Haemolytic properties of selected saponins; settings: saponins purified to more than 75%
Source text: The haemolytic properties of the various saponins that have been purified to more than 75% have been examined and are provided in Table 39. Haemolytic properties are not directly related to anti-cancer or apoptosis inducing properties of saponins but may be related to toxicity and utility of the saponins for preparation of injectable formulations. Saponins most suitable for injectable formulation will be less haemolytic. QS21, a purified Quillaja saponaria saponin with known haemolytic activity is used as reference.

Segetoside H [PC1448]
Change in number of cells showing Annexin V staining (in words) (CRL-2522 cells; 14 μM PC1448, 10-40 hr): No meaningful changes | Annexin-V positive cells (CRL-2522 cells; 14 μM PC1448, 10 hr): 17.2% | Annexin-V positive cells (CRL-2522 cells; 14 μM PC1448, 20 hr): 9.3% | Annexin-V positive cells (CRL-2522 cells; 14 μM PC1448, 40 hr): 18.2% | Cells with caspase 3/7 activity (PC-3 cells; 2.5 μM PC1448, 37 hr): 5.6% | Cells with decreased mitochondrial membrane potential (PC-3 cells; 2.5 μM PC1448, 37 hr): 6.0% | Cells with caspase 3/7 activity (PC-3 cells; 5.0 μM PC1448, 37 hr): 35.1% | Cells with decreased mitochondrial membrane potential (PC-3 cells; 5.0 μM PC1448, 37 hr): 9.9% | Cells with caspase 3/7 activity (PC-3 cells; 7 μM PC1448, 26 hr): 77.8% | Cells with decreased mitochondrial membrane potential (PC-3 cells; 7 μM PC1448, 26 hr): 24.8% | Cells with caspase 3/7 activity (PC-3 cells; 10 μM PC1448, 26 hr): 86.2% | Cells with decreased mitochondrial membrane potential (PC-3 cells; 10 μM PC1448, 26 hr): 30.8% | Cells with caspase 3/7 activity (PC-3 cells; 10.0 μM PC1448, 37 hr): 76.8% | Cells with decreased mitochondrial membrane potential (PC-3 cells; 10.0 μM PC1448, 37 hr): 26.7% | Cells with caspase 3/7 activity (PC-3 cells; 14 μM PC1448, 05 hr): 13.0% | Cells with decreased mitochondrial membrane potential (PC-3 cells; 14 μM PC1448, 05 hr): 38.0% | Cells with caspase 3/7 activity (PC-3 cells; 14 μM PC1448, 10 hr): 29.2% | Cells with decreased mitochondrial membrane potential (PC-3 cells; 14 μM PC1448, 10 hr): 72.5% | Cells with caspase 3/7 activity (PC-3 cells; 14 μM PC1448, 15 hr): 42.9% | Cells with decreased mitochondrial membrane potential (PC-3 cells; 14 μM PC1448, 15 hr): 89.4% | Cells with caspase 3/7 activity (PC-3 cells; 14 μM PC1448, 20 hr): 57.2% | Cells with decreased mitochondrial membrane potential (PC-3 cells; 14 μM PC1448, 20 hr): 94.1% | Increase in cells with a decreased mitochondrial membrane potential vs untreated (PC-3 cells; 14 μM PC1448, 20 hr (4.5% to 94.1%)): ~20 fold | Cells with caspase 3/7 activity (PC-3 cells; 14 μM PC1448, 26 hr): 84.0% | Cells with decreased mitochondrial membrane potential (PC-3 cells; 14 μM PC1448, 26 hr): 52.0% | Increase in cells with measurable caspase 3/7 activity vs untreated (PC-3 cells; 14 μM PC1448, over the 20 hr exposure period): approximately a doubling | Cells with caspase 3/7 activity (PC-3 cells; 15.0 μM PC1448, 37 hr): 72.9% | Cells with decreased mitochondrial membrane potential (PC-3 cells; 15.0 μM PC1448, 37 hr): 32.3% | Cells with caspase 3/7 activity (PC-3 cells; 17 μM PC1448, 26 hr): 77.7% | Cells with decreased mitochondrial membrane potential (PC-3 cells; 17 μM PC1448, 26 hr): 41.9% | Concentration of greatest effect on apoptosis (PC-3 cells; 37 hours): above 10 μM | Induction of apoptosis at concentrations as low as (PC-3 cells; 37 hours): 5.0 µM | Concentration with the greatest change in cells with decreased mitochondrial membrane potential (PC-3 cells; PC1448 7-17 μM, 26 hr): 14 µM | Concentration with the largest increase in caspase 3/7 activity (PC-3 cells; PC1448 7-17 μM, 26 hr): 10 µM | Increase in caspase 3/7 activity vs untreated (PC-3 cells; PC1448 7-17 μM, 26 hr, all treated cells): 9 fold | HD50 [1]: 13.8 µM

Segetoside I [PC1464]
Effect on Annexin V positive cells (in words) (CRL-2522 cells; 7 μM PC1464, 10-30 hr): little effect | Annexin-V positive cells (CRL-2522 cells; 7 μM PC1464, 10 hr): 6.0% | Annexin-V positive cells (CRL-2522 cells; 7 μM PC1464, 20 hr): 8.4% | Annexin-V positive cells (CRL-2522 cells; 7 μM PC1464, 30 hr): 10.2% | Cells with caspase 3/7 activity (PC-3 cells; 1.25 μM PC1464, 36 hr): 9.6% | Cells with decreased mitochondrial membrane potential (PC-3 cells; 1.25 μM PC1464, 36 hr): 1.8% | Cells with caspase 3/7 activity (PC-3 cells; 1.75 μM PC1464, 26 hr): 8.5% | Cells with decreased mitochondrial membrane potential (PC-3 cells; 1.75 μM PC1464, 26 hr): 3.2% | Cells with caspase 3/7 activity (PC-3 cells; 2.5 μM PC1464, 36 hr): 15.1% | Cells with decreased mitochondrial membrane potential (PC-3 cells; 2.5 μM PC1464, 36 hr): 3.4% | Cells with caspase 3/7 activity (PC-3 cells; 3.50 μM PC1464, 26 hr): 40.4% | Cells with decreased mitochondrial membrane potential (PC-3 cells; 3.50 μM PC1464, 26 hr): 14.8% | Cells with caspase 3/7 activity (PC-3 cells; 5.0 μM PC1464, 36 hr): 57.1% | Cells with decreased mitochondrial membrane potential (PC-3 cells; 5.0 μM PC1464, 36 hr): 28.7% | Cells with caspase 3/7 activity (PC-3 cells; 5.25 μM PC1464, 26 hr): 49.5% | Cells with decreased mitochondrial membrane potential (PC-3 cells; 5.25 μM PC1464, 26 hr): 20.3% | Cells with caspase 3/7 activity (PC-3 cells; 7 μM PC1464, 10 hr): 12.2% | Cells with decreased mitochondrial membrane potential (PC-3 cells; 7 μM PC1464, 10 hr): 5.1% | Cells with caspase 3/7 activity (PC-3 cells; 7 μM PC1464, 20 hr): 40.1% | Cells with decreased mitochondrial membrane potential (PC-3 cells; 7 μM PC1464, 20 hr): 21.4% | Cells with caspase 3/7 activity (PC-3 cells; 7.00 μM PC1464, 26 hr): 59.4% | Cells with decreased mitochondrial membrane potential (PC-3 cells; 7.00 μM PC1464, 26 hr): 24.1% | Increase in cells with decreased mitochondrial membrane potential (PC-3 cells; 7 μM PC1464, 30 hours): more than ten fold | Increase in number of cells with caspase 3/7 activity (PC-3 cells; 7 μM PC1464, 30 hours): six fold | Cells with caspase 3/7 activity (PC-3 cells; 7 μM PC1464, 30 hr): 54.6% | Cells with decreased mitochondrial membrane potential (PC-3 cells; 7 μM PC1464, 30 hr): 51.2% | Cells with caspase 3/7 activity (PC-3 cells; 10.0 μM PC1464, 36 hr): 59.6% | Cells with decreased mitochondrial membrane potential (PC-3 cells; 10.0 μM PC1464, 36 hr): 43.2% | Concentration of greatest effect on apoptosis (PC-3 cells; 36 hours): above 5 μM | Induction of apoptosis at concentrations as low as (PC-3 cells; 36 hours): 2.5 µM | Concentrations with significant effect on induction of apoptosis (PC-3 cells; PC1464 1.75-7 μM, 26 hour): ≥ 3.5 µM | HD50 [1]: 17.5 µM
